Data as given in a melting point compilation (Tetko et al.; mined from patent text by program, amines drawn as free bases though some values may be those of a salt).

Row | Compound | melting point [°C]
1 | O=c1cc(NCCN2CCC(c3noc4cc(F)ccc34)CC2)cn[nH]1 | 97 to 99
2 | CCc1nc2cc(CO)c(Cl)cc2n1-c1ccc(CCOC(=O)NS(=O)(=O)c2ccc(C)cc2)cc1 | 173
3 | COc1cc(N2CCC(=O)CC2)ncn1 | 111 to 114
4 | O=C(Nc1cccc(OCc2cccnc2)c1)N1CCOCC1 | 58 to 62
5 | COc1ccc(C(O)CNCCN)cc1 (centres undefined) | 68
6 | Cc1c(NC(=O)CC(C)(C)C)c(C)c2c(c1C(=O)c1ccccc1)OC[C@@H]2c1ccc(C(C)C)cc1 | 205 to 206
7 | O=C(O)C1Cc2cccc([N+](=O)[O-])c2C1 (centres undefined) | 140
8 | NS(=O)(=O)c1cc(C(F)(F)F)cc(C(F)(F)F)c1 | 183 to 185
9 | Cc1cc(S(=O)(=O)O)c(NC(=O)Nc2cccc(Br)c2)cc1Cl | 275
10 | CCCC12CCC3=C(CCc4cc(OC)ccc43)C1CCC2=O (centres undefined) | 111 to 113
11 | Cc1oc(-c2ccccc2)nc1COc1ccc2oc(CCCc3nnn[nH]3)cc2c1 | 136 to 137
12 | CCC(C)Cc1c(-c2ccc([N+](=O)[O-])cc2Cl)c(C)nc2ncnn12 (centres undefined) | 158 to 162
13 | COc1ccccc1C(=O)N1CCN(CC2(C)Cc3c(C)c(N)c(C)c(C)c3O2)CC1 (centres undefined) | 128 to 131
14 | CCC(O)c1oc(C)cc(=O)c1O (centres undefined) | 134 to 136
15 | C=CCc1c(OCCCSCc2nnn[nH]2)ccc(C(C)=O)c1O | 129 to 132
16 | C(=C\c1nc(COc2ccc(CCCCn3ccnc3-c3ccccc3)cc2)co1)/c1ccccc1 | 85 to 86
17 | Cc1cc(C)c2[nH]c(=O)n(CCCN3CC=C(c4ccc(Cl)cc4)CC3)c(=O)c2c1 | 224 to 226
18 | Cc1[nH]cnc1CCCCNC(=N)N | 152 to 154
19 | COC(=O)c1nc(Cl)c(F)c(N)c1I | 149 to 151
20 | Fc1cc(-n2cc(CNC(=S)c3ccccn3)nn2)ccc1N1CCSCC1 | 158 to 160
21 | O=C(NCc1ccncc1)c1cc2ccnc(Cl)c2[nH]1 | > 340
22 | CCCN(CC1CC1)C(=O)c1c2c(nn1C)N(c1c(C)cc(C)cc1Cl)CCC2 | 121 to 122

Row | Compound | melting point [°C]
23 | CCCN(Cc1ccc(-c2ccccc2-c2nnn[nH]2)cc1)c1nc(C)nnc1C(=O)OCC | 120 to 122
24 | CC(=O)N1CC2OC(C3OCCO3)(C1)c1ccccc12 (centres undefined) | 122 to 123
25 | CS(=O)(=O)Nc1c(Br)cnn1-c1ccc(C(F)(F)F)cc1Cl | 63 to 65
26 | COc1cccc(C2=C(CC(C)N3CCCC3)C(=O)NCCC2)c1 (centres undefined) | 94 to 96
27 | O=C(O)c1cc(-n2nc3n(c2=O)CCCC3)c(F)cc1Cl | 91 to 94
28 | O=c1[nH]c2cccc(OCCN3CCc4ccccc4C3)c2[nH]1 | 173 to 174
29 | Clc1cccc(Oc2ncccc2C2=NC(c3ccccc3)CO2)c1 (centres undefined) | 78 to 80
30 | BrC=C(c1ccccc1)c1ccccc1 | 45
31 | COc1cc(-c2nc3ccc(OCC(C)N(C)C)cc3n2Cc2ccccc2C(F)(F)F)cc(OC)c1OC (centres undefined) | 163
32 | COc1cc(N)c(Cl)cc1C(=O)NCC1CCN(CCCCCCNC(=O)c2ccccc2)CC1 | 159 to 162
33 | N=C(NO)c1ccc(-c2cccc(-c3nc4cc(C(=N)NO)ccc4[nH]3)c2)cc1 | 317 to 319
34 | CCCCCCCNC(=O)Oc1ccc2c(c1)N(Cc1ccccc1)CCC2 | 50
35 | c1ccc2c(c1)c1c(N3CCCC3)nc(N3CCCC3)nc1n2CCn1ccnc1 | 181 to 183
36 | COCS(=O)(=O)[C@H](C)[C@](O)(Cn1cncn1)c1ccc(F)cc1F | 102 to 103
37 | COc1ccc2c(c1)C(c1ccc(N)cc1)=NN(C(=O)C1CC1)C(C)C2 (centres undefined) | 93 to 95
38 | Cn1c(C(F)(F)F)cc(=O)n(-c2ccc3snc(N4CCOCC4)c3c2)c1=O | 200 to 205
39 | FC(F)(F)CNC(=S)Nc1cncc(Cl)n1 | 170 to 172
40 | C=CCON(C1=NCCN1)c1c(F)cccc1Br | 141
41 | COC(=O)C(Oc1ccc(Cl)cc1)c1ccc(Oc2ccccc2)cc1 (centres undefined) | 99 to 102
42 | CC(C)(C)c1ccc(CCC(=O)CC2CCCCC2)cc1NC(=O)CC1c2ccccc2Oc2ccccc21 | 154 to 155
43 | N#CC(C#N)=C1C=C(C=Cc2ccc(N)cc2)OC(C=Cc2ccc(N)cc2)=C1 | 249
44 | O=C1C2=C(CCCC2)C(=O)N1c1cc(OC2CCCCC2)c(Cl)cc1F | 102 to 103

Row | Compound | melting point [°C]
45 | O=Cc1c[nH]c2c1ccc1c2[nH]c2cc(Cl)cc(Cl)c21 | > 250
46 | N#Cc1nc2cccc(O)c2s1 | 225
47 | CCc1nc2cc(NC)c(Cl)cc2n1-c1ccc(CCNC(=O)NS(=O)(=O)c2ccc(C)cc2)cc1 | 95 to 100
48 | NCCNS(=O)(=O)c1cc(NC(=O)c2cnn3c(C(F)(F)F)cc(-c4ccc(C(F)(F)F)cc4)nc23)c(Cl)s1 | 195
49 | COC(=O)CCCCCSC1=CC(OC2CCCCO2)CC1=O (centres undefined) | 41 to 42
50 | Cc1c(C)c(N)c2c(c1C)C(=O)C(C)(C)O2 | 141 to 142
51 | CCCCN(C=NC1=C(C(=O)OCC)C(c2ccccc2Cl)C(C(=O)OCC)=C(C)N1)CCCC (centres undefined) | 126
52 | COc1ccc(C(=O)c2c(N)sc3c2CCCC3)c2ccccc12 | 227 to 229
53 | COc1cc(Nc2c(C#N)cnc3cc(/C=C/CCCN4CCOCC4)c(OC)cc23)c(Cl)cc1Cl | 110 to 112
54 | O=C(O)CCC/C=C\C[C@H]1[C@@H]2CC[C@@H](C2)[C@@H]1NC(=O)c1ccc(S(=O)(=O)n2cccc2)s1 | 113 to 114
55 | CCCc1nc2c(N)nc(C)c(C)c2n1CCCCS(C)(=O)=O | 152 to 153
56 | Cc1c(Cl)csc1-c1nc(-c2c(F)cccc2Cl)nn1C | 117 to 118
57 | CC(C)(C)OC(=O)Nc1ccc(C#Cc2ccccc2)cc1NC(=O)CC(=O)c1cccc([N+](=O)[O-])c1 | 177 to 179
58 | N#CCCNC(=O)C1=CC(CF)(CF)Oc2ccc(C#N)cc21 | 170 to 172
59 | CN1c2ccc(C=C(c3ccccc3)c3ccccc3)cc2S(=O)(=O)c2cc(C=C(c3ccccc3)c3ccccc3)ccc21 | 246 to 252
60 | COc1ccc(-n2nc(C(C)CCO)cc2-c2ccc(Cl)cc2)cc1 (centres undefined) | 97.5 to 98.5
61 | c1ccc(Oc2cccc(CSc3nc4cnccc4[nH]3)c2)cc1 | 156 to 158
62 | CCCCCC(C)C(C)c1cc(O)c2c(c1)OC(C)(C)C1=C2CN(CC(=O)N(C)C)CC1 (centres undefined) | 122 to 124
63 | O=C(O)C(CN1CCCC1)C(C(=O)O)P(=O)(O)O (centres undefined) | 122 to 124
64 | C#CCCn1nnc2cc3c(=O)n(C(C)Cn4ncnn4)nnc3cc2c1=O (centres undefined) | 185 to 188

Next, values leading:

Row | melting point [°C] | Compound
65 | 260 to 264 | CN(C)c1ccc(C=C2SC(=S)N(CC(=O)O)C2=O)cc1
66 | 128 to 130 | CC(=O)c1cc2c(s1)CCCC1CC(=O)N(c3ccc(Cl)cc3)N=C21 (centres undefined)
67 | 198 to 199 | NNC(=O)c1ccc2occ(-c3cc(F)ccc3F)c2c1
68 | 96 to 100 | O=C(COCc1ccccc1)NC(C(=O)Nc1n[nH]c(=S)s1)c1ccccc1 (centres undefined)
69 | 200 to 201 | Cc1c(CC(=O)O)cc2ccc(F)cc2c1Cc1ccc(S(=O)(=O)C(F)(F)F)cc1
70 | 100 to 103 | BrCc1noc2c1ccc1ccccc12
71 | 280 to 282 | O=C(O)Cn1c(=O)c(=O)n(O)c2ccc(Cl)cc21
72 | 166 to 170 | CCOC(=O)c1cc(=O)c2c3c(ccc2o1)C(=O)CC(C(=O)OC)=N3
73 | 194 to 196 | CCCn1c(=O)c2[nH]c(C(C)=Cc3ccccc3)nc2n(CCC)c1=O
74 | 98 to 99 | O=C(Nc1ccccc1)OCCc1ccc2c(c1)C(=O)c1ccccc1CO2
75 | 158 | CCc1nc2c(C)nc(C)cc2n1-c1ccc(CCOC(=O)NS(=O)(=O)c2ccc(C)cc2)cc1
76 | > 300 | O=C(O)c1ccc(-c2cc(-c3ccc(Cl)cc3)on2)cc1
77 | 81 to 83 | CC(=O)Oc1c(C)ccc2ccccc12
78 | 154 | O=C1C(=O)N(c2ccc(Cl)cc2)C(=O)N1c1ccccc1
79 | 138 to 140 | CC(=O)c1cn(S(=O)(=O)c2ccccc2)c2nccc(-c3ccccc3)c12
80 | 69 to 110 | COc1cc(OC2CCN(S(=O)(=O)CCNC3CC3)CC2)ccc1CC(=O)N1CCN(c2ccccc2C)CC1C(N)=O (centres undefined)
81 | 181 to 182 | NC(=O)c1c(Cl)c(-c2ccccc2)n2c1CN(C(=O)CCC1CCCCC1)CC2
82 | 142 to 143 | O=C1c2ccc([N+](=O)[O-])cc2C(=O)N1CCc1ccccc1

Row | melting point [°C] | Compound
83 | 65 to 67 | CCCCCCOc1ccc2[nH]c(C)c(CC(=O)O)c2c1
84 | 165 to 167 | O=C(CCc1ccccc1)Nc1ccc(C(=O)O)c(O)c1
85 | 146 to 147 | CCC(=O)c1ccc2c(c1)N(C(C)=O)c1ccccc1S2
86 | 155 | COc1ccc2[nH]cc(C3CCN(CCCCN4C(=O)c5ccccc5C4=O)CC3)c2c1
87 | 209 to 210 | O=C(O)CC1CCc2[nH]c3ccccc3c2C1 (centres undefined)
88 | 102 to 104 | CCOC(=O)c1cc(-c2ccccc2)n(-c2cccc(C(C)=O)c2)c1C
89 | 142 | CCN1C(=O)CN(c2ccccc2)C1=O
90 | 160 to 162 | Cn1nc(-c2ccccc2O)oc1=O
91 | 307 | Cc1ccc(C=CC(=O)NNC(=O)C=Cc2ccc(C)cc2)cc1
92 | 167 to 168 | Cc1cc(-c2nn(-c3cccc(C(F)(F)F)c3)ccc2=O)n(-c2ccccc2)n1
93 | 277 to 279 | O=C(CCCOc1ccc2nc3[nH]c(=O)[nH]c3cc2c1)N1CCN(c2ccccc2)CC1
94 | 195 to 196 | CC(C)(C)C(NC(=O)c1ccc(Cl)cc1)NC(=C[N+](=O)[O-])Nc1cccnc1 (centres undefined)
95 | 125 to 127 | CC(=O)Nc1cccc2c1SC(C)C2 (centres undefined)
96 | 120 to 121 | Cc1c(S(=O)(=O)Nc2ccc(CO)cc2S(C)(=O)=O)sc2ccc(F)cc12
97 | 158 | O=Cc1ccc(C(=O)Nc2ccc(Cl)cc2)cc1
98 | 165 to 167 | CC(=O)Oc1cc(-c2ccccc2)ccc1C1(OC(C)=O)C(=O)c2ccccc2C1=O
99 | 217 to 218 | CC(=O)c1cccc(C2=C(c3ccc(S(N)(=O)=O)cc3)OC(C)(C)C2=O)c1
